From PubChem BioAssay (NCI)
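Where inhibition never reached the appropriate level, the endpoint shown equals the highest concentration tested. Otherwise, values were interpolated linearly from a five-concentration, 48-hour dose response in 96-well plates. TGI marks complete inhibition of growth.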

What was measured:
Assay in all cases: DTP human tumour cell line panel, 48 h
SK-MEL-5 melanoma = test system: SK-MEL-5 melanoma
TK-10 renal = test system: TK-10 renal
HOP-62 NSCLC = test system: HOP-62 NSCLC
UACC-62 melanoma = test system: UACC-62 melanoma
RPMI-8226 leukemia = test system: RPMI-8226 leukemia
EKVX NSCLC = test system: EKVX NSCLC
MDA-MB-435 = test system: MDA-MB-435
HT29 colon = test system: HT29 colon
SK-MEL-2 melanoma = test system: SK-MEL-2 melanoma
SF-268 CNS = test system: SF-268 CNS

SMILES | TGI (SK-MEL-5 melanoma) [µM] | TGI (TK-10 renal) [µM] | TGI (HOP-62 NSCLC) [µM] | TGI (UACC-62 melanoma) [µM] | TGI (RPMI-8226 leukemia) [µM] | TGI (EKVX NSCLC) [µM] | TGI (MDA-MB-435) [µM] | TGI (HT29 colon) [µM] | TGI (SK-MEL-2 melanoma) [µM] | TGI (SF-268 CNS) [µM]
C1=C[C@]2(CCC13OCCO3)COc1ccccc12 | > 100 | > 100 | > 100 | > 100 | > 100 | > 100 | > 100 | 80.4 | > 100 | 
O=[N+]([O-])c1ccc(Cl)cc1N/N=C/c1cccs1 | > 100 | > 100 | > 100 | > 100 | > 100 | > 100 | > 100 | > 100 |  | > 100
COc1cc([C@@H]2c3cc4c(cc3[C@@H](Nc3ccc(NC(=O)c5cc(NC(=O)c6cc([N+](=O)[O-])cn6C)cn5C)cc3)[C@H]3COC(=O)[C@H]23)OCO4)cc(OC)c1O | > 33.5 | > 100 | 14.4 | > 100 | 0.486 | > 64.2 |  | 98.4 | > 100 | > 79.7
C/C(=N\NC(=O)N/N=C(\C)c1ccccn1)c1ccccn1 | > 47.3 |  | > 100 | > 100 | > 100 | > 100 | > 100 | > 100 | > 100 | > 83.9
c1ccc2nn(C3CCCCO3)nc2c1 (stereo unspecified) | > 100 | > 100 | > 100 | > 100 |  | > 100 | > 100 | > 100 | > 100 | > 100
CC(C)(C)c1cc(C2NC(=O)NC2=O)cc(C(C)(C)C)c1O (stereo unspecified) |  | 95.2 | > 100 | > 100 | > 100 | > 100 | > 100 | > 100 | > 100 | > 100
CC(C)(CN1CCCCC1)C(=O)/C=C/c1c(Cl)cccc1Cl | 2.92 | 1.77 | 4.03 | 2.61 |  | 3.24 | 2.85 | 2.89 | 3.73 | 3.88
CC1CN=C(N(C)C(=O)Nc2ccc(Cl)c(Cl)c2)S1 (stereo unspecified) | 29.9 | 92.5 | > 100 |  | > 100 | > 100 |  | > 100 | 44.2 | > 100
O=C1C=C(NCCc2cc(Br)c(O)c(Br)c2)C(=O)c2[nH]cnc21 | 29 | > 100 | > 100 | 40 |  | > 100 | 29.3 | 80.8 | > 100 | > 100
CCCN(CCC)c1c([N+](=O)[O-])cc(C(=O)N(C)C)cc1[N+](=O)[O-] | 28.9 | > 100 |  |  | > 100 | > 100 |  | > 100 | > 100 | > 100
COC(=O)C(N)CCCC(N)C(=O)NC(C)C(=O)NC(CCC(=O)NCCCNc1ccc([N+](=O)[O-])c2[nH]c3ccccc3c(=O)c12)C(N)=O (stereo unspecified) | 23.9 | 23.2 | 22.4 | 10.8 | 14 | 20.2 | 17.6 |  | 46.2 | 13.8
O=C1CC(Cl)c2c(Cl)sc(Cl)c21 (stereo unspecified) | 26.2 | 4.51 | 18.6 | 4.66 |  | 16.4 | 6.34 | 5.93 | > 25.5 | 5.51
O=C1/C(=C2\SCC(=O)N2c2ccccc2)SC(=S)N1c1ccccc1 | > 100 | > 100 |  | > 100 | > 100 | 82 | > 100 | > 100 | > 100 | > 100
O=c1c(S(=O)(=O)Oc2ccccc2)coc2cc(F)ccc12 | > 100 | > 100 | > 100 | > 100 |  | > 100 | > 100 | > 100 | > 100 | > 100
CC(CN(C)C)C(=O)/C=C/c1ccc(Cl)c(Cl)c1 (stereo unspecified) | 2.99 | 4.63 | 10.4 | 3.69 | > 100 | 3.11 | 3.33 |  | 4.19 | 4.14
Cc1ccc(NC(=O)CC(=O)N2N=C(c3ccccc3)C(N=Nc3ccc(S(=O)(=O)CCOS(=O)(=O)O)cc3)C2=O)cc1 (stereo unspecified) | > 100 | > 100 | > 100 |  | > 100 | > 100 | > 100 | > 100 | > 100 | > 100
CC(C)(C)OC(=O)N1C/C=C\C(=O)C2(OCCO2)c2ccccc21 | 31.7 | 47.3 | > 100 |  | 54.1 | > 100 | 34 | 42 | 68.5 | > 100
O=c1cc2cc(O)[nH]c(=O)c2c(O)[nH]1 | > 100 | > 100 | > 100 | > 100 | > 100 |  |  | > 100 |  | > 100
Cc1ccc(Nc2ccc(Nc3ccc(C)cc3S(=O)(=O)O)c3c2C(=O)c2ccccc2C3=O)c(S(=O)(=O)O)c1 | > 100 | > 100 | > 100 | > 100 | > 100 | > 100 |  |  | > 100 | > 100
CC(C)(Oc1ccc(C(=O)c2ccc(Cl)cc2)cc1Cl)C(=O)N1CCN(c2ccccc2)CC1 | > 100 | > 100 | > 100 | > 100 | > 100 | > 100 |  | > 100 | > 100 | > 100
Cc1[nH]c(=O)[nH]c(=O)c1C(=O)N(CCO)Cc1ccccc1 |  | > 100 | > 100 | > 100 | > 100 | > 100 | > 100 | > 100 | > 100 | > 100
CC(=O)OC1C(O)C(C)OC(OC(=O)C2CCC3C(C2)OC2(CC(OC(=O)/C=C/c4ccccc4)C(C)CO2)C32CO2)C1OC1OC(C)C(O)C(O)C1O (stereo unspecified) | 0.0897 |  | 0.223 | 0.114 | 1.15 | 0.246 |  | 0.576 | 0.0389 | 0.15
